Measured values taken from patent publication EP0227941A1, “1-Phenyl-4-(1H)-pyridazinimines, their preparation and use” (BASF Aktiengesellschaft, priority 1985, dated 1987).
pIC50: −log10 of the molar value.

Tests used:
Type in all cases: biochemical, Ratten
[1] = target: T1, Synaptosomen-Aufnahme von Noradrenalin (Rattus norvegicus, UniProt Q63380); test: Inhibition of noradrenaline uptake in rat brain synaptosomes (hippocampus, 3H-noradrenaline)
T1 construct: Durch differentielle Zentrifugation wurden Synaptosomen erhalten; from tissue; host or cells: rat brain hippocampus synaptosomes
T1 sequence (Q63380 1-617): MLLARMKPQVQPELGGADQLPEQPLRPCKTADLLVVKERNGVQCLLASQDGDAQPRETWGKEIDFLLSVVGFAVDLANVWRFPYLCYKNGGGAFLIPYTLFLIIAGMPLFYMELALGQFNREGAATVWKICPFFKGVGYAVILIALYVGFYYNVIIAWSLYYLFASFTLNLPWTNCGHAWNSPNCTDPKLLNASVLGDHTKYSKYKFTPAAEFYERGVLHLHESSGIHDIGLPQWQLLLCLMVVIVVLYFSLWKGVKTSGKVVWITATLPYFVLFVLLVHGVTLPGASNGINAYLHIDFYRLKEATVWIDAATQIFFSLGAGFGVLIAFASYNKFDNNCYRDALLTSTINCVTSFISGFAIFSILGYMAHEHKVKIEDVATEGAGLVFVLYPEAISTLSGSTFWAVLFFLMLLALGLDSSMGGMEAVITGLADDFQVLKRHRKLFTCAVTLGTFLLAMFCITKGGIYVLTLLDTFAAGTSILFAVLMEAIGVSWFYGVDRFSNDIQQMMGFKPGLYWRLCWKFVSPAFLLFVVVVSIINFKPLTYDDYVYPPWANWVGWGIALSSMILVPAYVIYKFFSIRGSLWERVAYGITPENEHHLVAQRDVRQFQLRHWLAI
Source text: (§1) Hemmung der Neurotransmitter-Aufnahme in Rattenhirn-Synaptosomen
(§2) Hippocampus und Cortex aus Rattenhirn wurden präpariert und in 0,32 M Sucrose-Lösung homogenisiert. Durch differentielle Zentrifugation wurden Synaptosomen erhalten, die in Pufferlösung suspendiert wurden. Die Synaptosomen sind in der Lage, aus dem umgebenden Medium zugefügte Neurotransmittersubstanzen (z.B. Noradrenalin oder Serotonin) aktiv aufzunehmen. Dieser Vorgang ist durch uptake-Hemmer konzentrationsabhängig antagonisierbar. Die Synaptosomen wurden mit den Testsubstanzen in verschiedenen Konzentrationen versetzt und anschließend mit ³H-Noradrenalin (Hippocampus) bzw. ³H-Serotonin (Cortex) bei 37°C inkubiert. Die Substratkonzentration betrug ca. 10 nM. Nach Stoppen der Aufnahme durch Verdünnen mit eisgekühlter Pufferlösung wurden die Synaptosomen abzentrifugiert und die ³H-Aktivität im Sediment gemessen. Der Blindwert wird durch Inkubation bei 0°C ermittelt.
(§3) Aus den verschiedenen Inhibitor-Konzentrationen gegen Kontrolle ermittelten Hemmwerten wurde durch lineare Regression nach logit-log-Transformation die mittlere Hemmkonzentration IC₅₀ berechnet.

[2] = target: T2, Monoaminoxidase Typ B (Rattus norvegicus, UniProt P19643); test: Inhibition of monoamine oxidase type B in rat brain homogenate (14C-phenylethylamine)
T2 construct: Die Bestimmung der Monoaminoxidase erfolgte in verdünntem Rattenhirnhomogenat; from tissue; host or cells: rat brain homogenate
T2 sequence (P19643 1-520): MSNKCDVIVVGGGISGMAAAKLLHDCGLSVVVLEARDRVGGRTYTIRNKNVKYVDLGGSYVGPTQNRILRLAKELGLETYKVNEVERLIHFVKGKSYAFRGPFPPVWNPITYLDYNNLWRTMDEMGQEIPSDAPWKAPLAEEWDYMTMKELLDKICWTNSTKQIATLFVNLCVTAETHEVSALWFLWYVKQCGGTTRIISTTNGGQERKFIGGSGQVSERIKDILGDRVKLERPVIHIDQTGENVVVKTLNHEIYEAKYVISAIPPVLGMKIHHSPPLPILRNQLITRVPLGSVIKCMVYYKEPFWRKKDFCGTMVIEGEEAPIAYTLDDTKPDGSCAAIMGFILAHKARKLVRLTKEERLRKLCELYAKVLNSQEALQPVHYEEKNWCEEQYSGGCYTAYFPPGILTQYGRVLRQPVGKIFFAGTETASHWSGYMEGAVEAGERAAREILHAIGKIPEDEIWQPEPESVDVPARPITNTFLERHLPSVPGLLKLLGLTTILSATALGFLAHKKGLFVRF
Method: (§4) Hemmung der Monoaminoxidase
(§5) Die Bestimmung der Monoaminoxidase erfolgte in verdünntem Rattenhirnhomogenat dem 1. unterschiedliche Konzentrationen der zu prüfenden Testsubstanzen und 2. für die Bestimmung der Monoaminoxidase Typ A ¹⁴C-Tryptamin in einer Konzentration von 0,4 µmol, zur Bestimmung der Monoaminoxidase Typ B ¹⁴C-Phenylethylamin in einer Konzentration von 0,25 µmol zugesetzt wurde. Dieser Ansatz wurde 20 Minuten bei 37°C inkubiert. Die Reaktion wird durch 0,1 n HCl gestoppt und die Reaktionsprodukte nach Extraktion in Toluol-Szintillator (PPO + POPOP in Toluol) bestimmt. Der Blindwert wird in analogen Ansätzen mit einer Inkubationszeit von t = 0 Minuten bestimmt.
(§6) Aus den bei den verschiedenen Inhibitorkonzentrationen gegen die Kontrolle ermittelten Hemmwerten wurde durch lineare Regression nach logit-log-Transformation die mittlere Hemmkonzentration (IC₅₀) berechnet.

[3] = target: T3, Synaptosomen-Aufnahme von Serotonin (Rattus norvegicus, UniProt P31652); test: Inhibition of serotonin uptake in rat brain synaptosomes (cortex, 3H-serotonin)
T3 construct: Durch differentielle Zentrifugation wurden Synaptosomen erhalten; from tissue; host or cells: rat brain cortex synaptosomes
T3 sequence (P31652 whole entry): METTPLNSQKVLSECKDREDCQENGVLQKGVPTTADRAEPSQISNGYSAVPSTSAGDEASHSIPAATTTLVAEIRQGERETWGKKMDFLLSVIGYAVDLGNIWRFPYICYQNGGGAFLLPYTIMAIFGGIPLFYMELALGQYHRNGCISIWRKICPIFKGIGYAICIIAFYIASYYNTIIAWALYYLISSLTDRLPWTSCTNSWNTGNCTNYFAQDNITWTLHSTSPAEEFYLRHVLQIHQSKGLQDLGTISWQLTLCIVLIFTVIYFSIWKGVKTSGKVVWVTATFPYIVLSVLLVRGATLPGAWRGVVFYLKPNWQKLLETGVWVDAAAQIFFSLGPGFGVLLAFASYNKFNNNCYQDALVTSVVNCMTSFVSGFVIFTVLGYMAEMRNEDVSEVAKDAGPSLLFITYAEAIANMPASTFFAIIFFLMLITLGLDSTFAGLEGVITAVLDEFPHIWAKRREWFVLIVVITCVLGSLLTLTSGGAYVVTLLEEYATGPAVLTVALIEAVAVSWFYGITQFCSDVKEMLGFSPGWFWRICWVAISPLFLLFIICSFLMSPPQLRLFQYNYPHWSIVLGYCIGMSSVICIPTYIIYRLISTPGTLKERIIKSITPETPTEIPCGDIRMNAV
Source text: as §1, §2, §3

[4] = target: T4, Monoaminoxidase Typ A (Rattus norvegicus, UniProt P21396); test: Inhibition of monoamine oxidase type A in rat brain homogenate (14C-tryptamine)
T4 construct: Die Bestimmung der Monoaminoxidase erfolgte in verdünntem Rattenhirnhomogenat; from tissue; host or cells: rat brain homogenate
T4 sequence (P21396 1-526): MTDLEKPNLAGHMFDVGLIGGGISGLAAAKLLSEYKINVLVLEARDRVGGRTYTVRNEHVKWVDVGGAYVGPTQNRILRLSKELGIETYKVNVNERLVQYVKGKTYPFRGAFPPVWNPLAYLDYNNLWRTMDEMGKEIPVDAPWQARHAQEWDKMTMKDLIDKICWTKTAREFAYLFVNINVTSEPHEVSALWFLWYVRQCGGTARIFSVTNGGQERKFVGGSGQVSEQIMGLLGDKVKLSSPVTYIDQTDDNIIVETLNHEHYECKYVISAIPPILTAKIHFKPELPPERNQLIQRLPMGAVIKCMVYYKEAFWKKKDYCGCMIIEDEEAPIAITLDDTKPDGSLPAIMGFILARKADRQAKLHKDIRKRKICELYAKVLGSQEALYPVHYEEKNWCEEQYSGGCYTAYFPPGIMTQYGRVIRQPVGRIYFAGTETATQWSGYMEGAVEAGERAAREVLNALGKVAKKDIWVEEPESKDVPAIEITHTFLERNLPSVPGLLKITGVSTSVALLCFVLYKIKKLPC
Method: as §4, §5, §6

[5] = Quotient IC50 Referenzverbindung / IC50 Beispielverbindung

Cc1cc(-n2ccc(=N)cn2)ccc1Br [Beispiel 46, 1-(3-Methyl-4-bromphenyl)-4-(1H)-pyridazinimin-sulfat]
Hemmung der Synaptosomen-Aufnahme von Noradrenalin r.W. (relative Wirksamkeit) [1, 5]: 3.1 | pIC50 ([1]; rat hippocampus synaptosomes, 3H-Noradrenalin ca. 10 nM, 37°C, read-out: Hemmung der Synaptosomen-Aufnahme von Noradrenalin IC50): 8.00 | Hemmung der Monoaminoxidase Typ B r.W. (relative Wirksamkeit) [2, 5]: 12.2 | pIC50 ([2]; rat brain homogenate, 14C-Phenylethylamin, 20 min 37°C, read-out: Hemmung der Monoaminoxidase Typ B IC50): 5.40 | Hemmung der Synaptosomen-Aufnahme von Serotonin r.W. (relative Wirksamkeit) [3, 5]: 103 | pIC50 ([3]; rat cortex synaptosomes, 3H-Serotonin ca. 10 nM, 37°C, read-out: Hemmung der Synaptosomen-Aufnahme von Serotonin IC50): 8.15 | Hemmung der Monoaminoxidase Typ A r.W. (relative Wirksamkeit) [4, 5]: 4.2 | pIC50 ([4]; rat brain homogenate, 14C-Tryptamin, 20 min 37°C, read-out: Hemmung der Monoaminoxidase Typ A IC50): 6.00
